{"source": "BigSolDB 2.1", "data": [{"compound": "O=C(O)c1ccc(O)c(O)c1", "values": [{"measurement": "solubility (mole fraction)", "setting": "in ethanol, 293.15 K", "result": 0.0302}, {"measurement": "solubility (mole fraction)", "setting": "in ethanol, 298.15 K", "result": 0.041}, {"measurement": "solubility (mole fraction)", "setting": "in ethanol, 303.15 K", "result": 0.0495}, {"measurement": "solubility (mole fraction)", "setting": "in ethanol, 308.15 K", "result": 0.0665}, {"measurement": "solubility (mole fraction)", "setting": "in ethanol, 313.15 K", "result": 0.0847}, {"measurement": "solubility (mole fraction)", "setting": "in ethanol, 318.15 K", "result": 0.108}, {"measurement": "solubility (mole fraction)", "setting": "in ethyl acetate, 293.15 K", "result": 0.00478}, {"measurement": "solubility (mole fraction)", "setting": "in ethyl acetate, 298.15 K", "result": 0.00671}, {"measurement": "solubility (mole fraction)", "setting": "in ethyl acetate, 303.15 K", "result": 0.00906}, {"measurement": "solubility (mole fraction)", "setting": "in ethyl acetate, 308.15 K", "result": 0.013}, {"measurement": "solubility (mole fraction)", "setting": "in ethyl acetate, 313.15 K", "result": 0.0179}, {"measurement": "solubility (mole fraction)", "setting": "in ethyl acetate, 318.15 K", "result": 0.0233}, {"measurement": "solubility (mole fraction)", "setting": "in methanol, 293.15 K", "result": 0.0337}, {"measurement": "solubility (mole fraction)", "setting": "in methanol, 298.15 K", "result": 0.0451}, {"measurement": "solubility (mole fraction)", "setting": "in methanol, 303.15 K", "result": 0.0654}, {"measurement": "solubility (mole fraction)", "setting": "in methanol, 308.15 K", "result": 0.093}, {"measurement": "solubility (mole fraction)", "setting": "in methanol, 313.15 K", "result": 0.126}, {"measurement": "solubility (mole fraction)", "setting": "in methanol, 318.15 K", "result": 0.167}, {"measurement": "solubility (mole fraction)", "setting": "in methyl acetate, 293.15 K", "result": 0.00563}, {"measurement": "solubility (mole fraction)", "setting": "in methyl acetate, 298.15 K", "result": 0.00843}, {"measurement": "solubility (mole fraction)", "setting": "in methyl acetate, 303.15 K", "result": 0.0115}, {"measurement": "solubility (mole fraction)", "setting": "in methyl acetate, 308.15 K", "result": 0.0167}, {"measurement": "solubility (mole fraction)", "setting": "in methyl acetate, 313.15 K", "result": 0.0225}, {"measurement": "solubility (mole fraction)", "setting": "in methyl acetate, 318.15 K", "result": 0.03}]}]}
